PubChem BioAssay AID256 (DTP/NCI, 2004)
Toxic doses and inconclusive results are not listed. The calls were made as follows: active = survival T/C of 150% or more; inactive = T/C below 125% in these data.

Test system: CD2F1 mice, L1210 leukemia ip, survival T/C
Experiment: NCI In Vivo Anticancer Drug Screen. Data for tumor model L1210 Leukemia (intraperitoneal) in CD2F1 (CDF1) mice
Details: higher = longer survival
In short: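 Compound-dosed mice with transplantable tumor versus matched vehicle controls; endpoint ratio T/C reported.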

[1] = endpoint: mean survival time, dose: 100.0 mg/kg/injection, schedule: Q01DX009 (ip), vehicle: saline with Tween-80
[2] = endpoint: mean survival time, dose: 200.0 mg/kg/injection, schedule: Q01DX009 (ip), vehicle: saline with Tween-80
[3] = endpoint: mean survival time, dose: 400.0 mg/kg/injection, schedule: Q01DX009 (ip), vehicle: saline with Tween-80
[4] = endpoint: mean survival time, dose: 50.0 mg/kg/injection, schedule: Q01DX009 (ip), vehicle: saline with Tween-80
[5] = endpoint: mean survival time, dose: 12.5 mg/kg/injection, schedule: Q01DX009 (ip), vehicle: saline with Tween-80
[6] = endpoint: mean survival time, dose: 25.0 mg/kg/injection, schedule: Q01DX009 (ip), vehicle: saline with Tween-80
[7] = endpoint: mean survival time, dose: 100.0 mg/kg/injection, schedule: Q04DX003 (ip), vehicle: saline with Tween-80
[8] = endpoint: mean survival time, dose: 200.0 mg/kg/injection, schedule: Q04DX003 (ip), vehicle: saline with Tween-80
[9] = endpoint: mean survival time, dose: 400.0 mg/kg/injection, schedule: Q04DX003 (ip), vehicle: saline with Tween-80

Measured: T/C

CC1CCN(N=Nc2ccc(Br)cc2-c2nc(N)c3cc(Br)ccc3n2)CC1
inactive: endpoint: mean survival time, dose: 6.25 mg/kg/injection, schedule: Q01DX005 (ip), vehicle: other 92 % of control | endpoint: mean survival time, dose: 12.5 mg/kg/injection, schedule: Q01DX005 (ip), vehicle: other 103 % of control | endpoint: mean survival time, dose: 25.0 mg/kg/injection, schedule: Q01DX005 (ip), vehicle: other 95 % of control | endpoint: mean survival time, dose: 50.0 mg/kg/injection, schedule: Q01DX005 (ip), vehicle: other 92 % of control | endpoint: mean survival time, dose: 100.0 mg/kg/injection, schedule: Q01DX005 (ip), vehicle: other 92 % of control

O/N=C1/CCCC/C1=C/c1ccccc1
inactive: [1] 103 % of control | [2] 97 % of control | [3] 97 % of control

Cc1ccc(CO)cc1C
inactive: [4] 101 % of control | [1] 97 % of control | [2] 101 % of control

C=C(CC)C1(C)C(=O)NC(=O)NC1=O
inactive: endpoint: mean survival time, dose: 75.0 mg/kg/injection, schedule: Q01DX001 (ip), vehicle: saline 95 % of control | endpoint: mean survival time, dose: 150.0 mg/kg/injection, schedule: Q01DX001 (ip), vehicle: saline 97 % of control | endpoint: mean survival time, dose: 300.0 mg/kg/injection, schedule: Q01DX001 (ip), vehicle: saline 101 % of control

O=C(OCC1CC=CC1)C1CC=CC1
inactive: [5] 104 % of control | [6] 95 % of control | [4] 98 % of control

N=C(OC1CCCCC1)C(Cl)(Cl)Cl
inactive: [4] 92 % of control | [1] 88 % of control

O=C(COc1ccc(F)cc1F)OC(=O)Cc1ccc(Br)cc1
inactive: endpoint: mean survival time, dose: 100.0 mg/kg/injection, schedule: Q04DX002 (ip), vehicle: saline with Tween-80 101 % of control | endpoint: mean survival time, dose: 200.0 mg/kg/injection, schedule: Q04DX002 (ip), vehicle: saline with Tween-80 105 % of control | endpoint: mean survival time, dose: 400.0 mg/kg/injection, schedule: Q04DX002 (ip), vehicle: saline with Tween-80 86 % of control

CC(C)C(NC1=NCCO1)c1ccccc1 (stereo not drawn)
inactive: endpoint: mean survival time, dose: 12.5 mg/kg/injection, schedule: Q04DX003 (ip), vehicle: saline with Tween-80 106 % of control | endpoint: mean survival time, dose: 25.0 mg/kg/injection, schedule: Q04DX003 (ip), vehicle: saline with Tween-80 98 % of control | endpoint: mean survival time, dose: 50.0 mg/kg/injection, schedule: Q04DX003 (ip), vehicle: saline with Tween-80 104 % of control

O=C(N/N=C/c1ccc2c(c1)CCC2)c1cc2ccccc2cc1O
inactive: endpoint: mean survival time, dose: 100.0 mg/kg/injection, schedule: Q01DX001 (ip), vehicle: saline with Tween-80 92 % of control | [7] 95 % of control | endpoint: mean survival time, dose: 200.0 mg/kg/injection, schedule: Q01DX001 (ip), vehicle: saline with Tween-80 92 % of control | [8] 94 % of control | endpoint: mean survival time, dose: 400.0 mg/kg/injection, schedule: Q01DX001 (ip), vehicle: saline with Tween-80 87 % of control | [9] 89 % of control

C/C=C(\Cl)C1=CC(=O)C23CC2C2(C)COC1(O)C3(O)O2 (stereo not drawn)
inactive: endpoint: mean survival time, dose: 1.5 mg/kg/injection, schedule: Q01DX009 (ip), vehicle: saline with Tween-80 93 % of control | endpoint: mean survival time, dose: 3.0 mg/kg/injection, schedule: Q01DX009 (ip), vehicle: saline with Tween-80 93 % of control | endpoint: mean survival time, dose: 6.0 mg/kg/injection, schedule: Q01DX009 (ip), vehicle: saline with Tween-80 110 % of control

N#CCC(C#N)C1C=CCC1 (stereo not drawn)
inactive: endpoint: mean survival time, dose: 3.13 mg/kg/injection, schedule: Q04DX003 (ip), vehicle: saline 98 % of control | endpoint: mean survival time, dose: 6.25 mg/kg/injection, schedule: Q04DX003 (ip), vehicle: saline 101 % of control

CN(C)C(C)(CO)CO
inactive: endpoint: mean survival time, dose: 100.0 mg/kg/injection, schedule: Q01DX001 (ip), vehicle: saline 98 % of control | endpoint: mean survival time, dose: 200.0 mg/kg/injection, schedule: Q01DX001 (ip), vehicle: saline 98 % of control | endpoint: mean survival time, dose: 400.0 mg/kg/injection, schedule: Q01DX001 (ip), vehicle: saline 113 % of control

COC(=O)c1ncn(C2OC(CO)C(O)C2O)n1 (stereo not drawn)
inactive: endpoint: median survival time, dose: 8.75 mg/kg/injection, schedule: Q01DX005 (ip), vehicle: water 100 % of control | endpoint: median survival time, dose: 17.5 mg/kg/injection, schedule: Q01DX005 (ip), vehicle: water 96 % of control | endpoint: median survival time, dose: 35.0 mg/kg/injection, schedule: Q01DX005 (ip), vehicle: water 97 % of control | endpoint: median survival time, dose: 70.0 mg/kg/injection, schedule: Q01DX005 (ip), vehicle: water 97 % of control | endpoint: median survival time, dose: 140.0 mg/kg/injection, schedule: Q01DX005 (ip), vehicle: water 100 % of control

c1ccc2c(c1)C(=NN=C1c3ccccc3-c3ccccc31)c1ccccc1-2
inactive: [1] 94 % of control | [7] 94 % of control | [2] 92 % of control | [8] 88 % of control | [3] 94 % of control | [9] 88 % of control

COc1cc(/C=N\NC(=O)CNC(=O)Nc2cccc(Cl)c2)ccc1O
inactive: [5] 91 % of control | [6] 91 % of control | [4] 91 % of control
